{"source": "patent US8198317B2", "about": "“Methylenedioxy phenolic compounds and their use to treat disease” (The Ohio State University Research Foundation, priority 2008, dated 2012)", "assay_type_in_all_cases": "in vivo, rabbit", "key": {"[1]": {"tested_on": "thoracic aorta of New Zealand White rabbits", "test": "Myograph experiments on thoracic aortic rings of NZW rabbits", "conditions": "NZW thoracic aorta, end of 12 weeks", "experimental": "(§1) Animal Model: 15 male New Zealand White rabbits (Charles River, Mass.) were fed with high fat diet (HFD) (Harlan Teklad rabbit diet with 0.5% cholesterol, TD 87251). After 4 weeks of high fat diet, rabbits were randomized into three different treatment groups, normal control (n=5), lipoic acid (100 mg/kg/day) (n=5), INV 70-65 (100 mg/kg/day) (n=5). These drugs were administered to the animals via their chow by mixing the drugs with the high fat diet. A fixed amount of chow and drugs admixed in the chow were fed to all animals every day after carefully calculating food intake in each rabbit. Drugs were dissolved in 100% ethanol and sprayed onto the diet and kept under vacuum to let ethanol evaporate overnight. Two (2) weeks after drug or control admixed HFD, all rabbits underwent aortic balloon denudation surgeries followed by 12 weeks of continued administration of drug or controls admixed with HFD. FIG. 29 provides an outline of the experimental design.\nRabbits were euthanized by injection of lethal doses of pentobarbital. The thoracic aortas were collected for the myograph studies. Two (2) mm thoracic aortic rings were suspended in individual organ chambers filled with physiological salt solution buffer (sodium chloride, 130 mEq/L; potassium chloride, 4.7 mEq/L; calcium dichloride, 1.6 mEq/L; magnesium sulfate, 1.17 mEq/L; potassium diphosphate, 1.18 mEq/L; sodium bicarbonate, 14.9 mEq/L; EDTA, 0.026 mEq/L; and glucose, 99.1 mg/dL [5.5 mmol/L]; pH, 7.4), aerated continuously with 5% carbon dioxide in oxygen at 37° C. Vessels were allowed to equilibrate for at least 1 hour at a resting tension of 30 mN before being subjected to graded doses of agonists. The vasoconstrictor agonist phenylephrine (PE) was used and responses were expressed as a percentage of the peak response to 120 mEq/L of potassium chloride. The vessels subjected to PE were washed thoroughly and allowed to equilibrate for 1 hour before beginning experiments with acetylcholine or sodium nitroprusside (SNP). […] Results for the vasodilators were expressed as a percentage of pre-contraction by PE (0.1 μM)."}, "[2]": {"tested_on": "New Zealand White rabbits", "test": "Plasma lipid profile in NZW rabbits", "conditions": "end of treatment", "experimental": "as §1\nA lipid profile (Cholesterol, Triglycerides, direct HDL, LDL and VLDL) was performed after a total of 12 weeks of treatment with the drugs. One (1) ml of blood from the ear lobe vein was placed into tubes containing K EDTA at the beginning of the high cholesterol diet and again at the time of sacrifice. All values were expressed as mean±SD. The bar graph of each group both at the baseline and the end point measurement is presented. The statistical analysis was done with one way ANOVA."}, "[3]": {"tested_on": "New Zealand White rabbits", "test": "Oil Red O staining of abdominal aorta of NZW rabbits", "conditions": "NZW abdominal aorta", "experimental": "as §1\nHypercholesterolemia and oxidative stress play an important role in the development of atherosclerosis. The rabbits were sacrificed and abdominal aortas were fixed in 4% PFA (paraformaldehyde). The lipid deposition in the aortic wall was then visualized by oil red staining."}, "[4]": {"tested_on": "New Zealand White rabbits", "test": "MRI assessment of atherosclerosis in balloon denuded NZW rabbits", "conditions": "high fat diet, 100 mg/kg/day, 12 weeks", "experimental": "as §1\nMRI experiments were conducted at two time points: 1 week and 12 weeks after the balloon denudation procedure (FIG. 29). […] MR images were analyzed using a Siemens Leonardo Workstation (Siemens Healthcare Inc. Germany).\nTo assess the different rates of atherosclerosis plaque progression for each rabbit group, the aortic wall was identified in the pre-contrast images at both MRI time points. […] To account for the variable number of slices, for each rabbit a normalized aortic wall volume was calculated.\nTo assess plaque neovasculature progression in the different treatment groups, only the 12 weeks post balloon denudation MR images were used. […] The signal to noise ratio (SNR) for each slice was calculated as the mean signal obtained from the vessel wall divided by the standard deviation of the noise from a region outside the body. A ratio of the SNR enhancement for each rabbit was obtained by dividing the post and pre contrast calculated SNRs."}}, "note": "Entries after “also recorded” stand apart in the source; their conditions may differ.", "data": [{"compound": "O=C(O)CCCC[C@@H]1CCSS1", "note": "(racemic) [Lipoic Acid, lipoic acid, reference compound]", "values": [{"measurement": "Ach LogEC50", "setting": "[1]", "value": "−6.47 ± 0.18", "unit": "M"}, {"measurement": "PE LogEC50", "setting": "[1]", "value": "−6.48 ± 0.09", "unit": "M"}, {"measurement": "SNP-1 LogEC50", "setting": "[1]", "value": "−6.75 ± 0.21", "unit": "M"}, {"measurement": "PE Maximum Effect", "setting": "[1]; % of peak response to KCl", "value": "154.0 ± 7.24", "unit": "%"}, {"measurement": "Ach Maximum Effect", "setting": "[1]; % of pre-contraction by PE", "value": "−33.00 ± 2.94", "unit": "%"}, {"measurement": "Insulin Maximum Effect", "setting": "[1]; % of pre-contraction by PE", "value": "−107.8 ± 7.68", "unit": "%"}, {"measurement": "SNP-1 Maximum Effect", "setting": "[1]; % of pre-contraction by PE", "value": "−89.04 ± 7.67", "unit": "%"}, {"measurement": "HDL levels", "setting": "[2]", "value": "increased moderately"}, {"measurement": "LDL level compared to normal control", "setting": "[2]", "value": "moderate decreases; also recorded: lower"}, {"measurement": "TC level compared to normal control", "setting": "[2]", "value": "moderate decreases"}, {"measurement": "VLDL levels compared to controls", "setting": "[2]", "value": "no change"}, {"measurement": "triglyceride (TG) levels compared to controls", "setting": "[2]", "value": "significantly decreased"}, {"measurement": "lipid content in the plaque area (Oil Red O) compared to the control group", "setting": "[3]", "value": "reduction"}, {"measurement": "plaque burden by MRI", "setting": "[4]", "value": "no difference"}]}]}
